Measured values: patent US20180170903A1, “PYRIDIN-3-YL ACETIC ACID DERIVATIVES AS INHIBITORS OF HUMAN IMMUNODEFICIENCY VIRUS REPLICATION” (ViiV HEALTHCARE UK (NO.5) LIMITED, priority 2015, published 2018)

Tested on: NL-RLuc virus (recombinant HIV NL4-3 proviral clone with Renilla Luciferase) in MT-2 cells
Assay: Inhibition of HIV Replication (NL-RLuc luciferase reporter virus, MT-2 cells)
Type: cell-based
Settings: MT2, 120 h, read-out: Activity
Text: Inhibition of HIV Replication:
A recombinant NL-RLuc proviral clone was constructed in which a section of the nef gene from NL4-3 was replaced with the Renilla Luciferase gene. This virus is fully infectious and can undergo multiple cycles of replication in cell culture. In addition, the luciferous reporter provides a simple and easy method for quantitating the extent of virus growth and consequently, the antiviral activity of test compounds. The plasmid pNLRLuc contains the proviral NL-Rluc DNA cloned into pUC 18 at the PvuII site. The NL-RLuc virus was prepared by transfection of 293T cells with the plasmid pNLRLuc. Transfections were performed using the LipofectAMINE PLUS kit from Invitrogen (Carlsbad, Calif.) according to the manufacturer and the virus generated was titered in MT-2 cells. For susceptibility analyses, the titrated virus was used to infect MT-2 cells in the presence of compound, and after 5 days of incubation, cells were processed and quantitated for virus growth by the amount of expressed luciferase. Assay media was RPMI 1640 supplemented with 10% heat inactivated fetal bovine serum (FBS), 100 units/ml penicillin G/100 units/ml streptomycin, 10 mM HEPES buffer pH 7.55 and 2 mM L-glutamine. The results from at least 2 experiments were used to calculate the EC50 values. Luciferase was quantitated using the Dual Luciferase kit from Promega (Madison, Wis.). Susceptibility of viruses to compounds was determined by incubation in the presence of serial dilutions of the compound. The 50% effective concentration (EC50) was calculated by using the exponential form of the median effect equation where (Fa)=1/[1+(ED50/drug conc.)^m](Johnson V A, Byington R T. Infectivity Assay. In Techniques in HIV Research. ed. Aldovini A, Walker B D. 71-76. New York: Stockton Press. 1990). Activity equal to A refers to a compound having an EC50≤100 nM, while B and C denote compounds having an EC50 between 100 nM and 1 uM (B) or >1 uM (C).

`Cc1nc(C)c([C@H](OC(C)(C)C)C(=O)O)c(N2CCC(C)(C)CC2)c1-c1ccc(CN(Cc2ccc(F)cc2)C(=O)C2CCC2)cc1` [Example 42, (S)-2-(tert-butoxy)-2-(4-(4,4-dimethylpiperidin-1-yl)-5-(4-((N-(4-fluorobenzyl)cyclobutanecarboxamido)methyl)phenyl)-2,6-dimethylpyridin-3-yl)acetic acid] and `Cc1nc(C)c([C@H](OC(C)(C)C)C(=O)O)c(N2CCC(C)(C)CC2)c1-c1ccc(CN(Cc2ccc(F)cc2)C(=O)N2CCCC2)cc1` [Example 35, (S)-2-(tert-butoxy)-2-(4-(4,4-dimethylpiperidin-1-yl)-5-(4-((N-(4-fluorobenzyl)pyrrolidine-1-carboxamido)methyl)phenyl)-2,6-dimethylpyridin-3-yl)acetic acid] cannot be ordered by EC50: less than 0.1 µM for the first, less than 0.1 µM for the second.

First: Cc1nc(C)c([C@H](OC(C)(C)C)C(=O)O)c(N2CCC(C)(C)CC2)c1-c1ccc(CNCCC2CCCCC2)cc1 [Example 13, (S)-2-(tert-butoxy)-2-(5-(4-(((2-cyclohexylethyl)amino)methyl)phenyl)-4-(4,4-dimethylpiperidin-1-yl)-2,6-dimethylpyridin-3-yl)acetic acid]
Second: Cc1nc(C)c([C@H](OC(C)(C)C)C(=O)O)c(N2CCC(C)(C)CC2)c1-c1ccc(CNCc2ccccc2)cc1 [Example 14, (S)-2-(5-(4-((benzylamino)methyl)phenyl)-4-(4,4-dimethylpiperidin-1-yl)-2,6-dimethylpyridin-3-yl)-2-(tert-butoxy)acetic acid]
The EC50 of the first is higher: 0.1 to 1 µM for the first, less than 0.1 µM for the second.

`Cc1ccc(CNCc2ccc(-c3c(C)nc(C)c([C@H](OC(C)(C)C)C(=O)O)c3N3CCC(C)(C)CC3)cc2)cc1` [Example 16, (S)-2-(tert-butoxy)-2-(4-(4,4-dimethylpiperidin-1-yl)-2,6-dimethyl-5-(4-(((4-methylbenzyl)amino)methyl)phenyl)pyridin-3-yl)acetic acid] and `CON(Cc1ccc(F)cc1)Cc1ccc(-c2c(C)nc(C)c([C@H](OC(C)(C)C)C(=O)O)c2N2CCC(C)(C)CC2)cc1` [Example 10, (S)-2-(tert-butoxy)-2-(4-(4,4-dimethylpiperidin-1-yl)-5-(4-(((4-fluorobenzyl)(methoxy)amino)methyl)phenyl)-2,6-dimethylpyridin-3-yl)acetic acid] cannot be ordered by EC50: less than 0.1 µM for the first, less than 0.1 µM for the second.

`Cc1nc(C)c([C@H](OC(C)(C)C)C(=O)O)c(N2CCC(C)(C)CC2)c1-c1ccc(CN(Cc2ccc(F)cc2)C(=O)c2cccc(F)c2)cc1` [Example 41, (S)-2-(tert-butoxy)-2-(4-(4,4-dimethylpiperidin-1-yl)-5-(4-((3-fluoro-N-(4-fluorobenzyl)benzamido)methyl)phenyl)-2,6-dimethylpyridin-3-yl)acetic acid] and `Cc1nc(C)c([C@H](OC(C)(C)C)C(=O)O)c(N2CCC(C)(C)CC2)c1-c1ccc(CN(Cc2ccc(F)cc2)C(=O)c2ccccc2F)cc1` [Example 27, (S)-2-(tert-butoxy)-2-(4-(4,4-dimethylpiperidin-1-yl)-5-(4-((2-fluoro-N-(4-fluorobenzyl)benzamido)methyl)phenyl)-2,6-dimethylpyridin-3-yl)acetic acid] cannot be ordered by EC50: less than 0.1 µM for the first, less than 0.1 µM for the second.

`Cc1nc(C)c([C@H](OC(C)(C)C)C(=O)O)c(N2CCC(C)(C)CC2)c1-c1ccc(CN(Cc2ccc(F)cc2)S(=O)(=O)c2ccccc2)cc1` [Example 36, (S)-2-(tert-butoxy)-2-(4-(4,4-dimethylpiperidin-1-yl)-5-(4-((N-(4-fluorobenzyl)phenylsulfonamido)methyl)phenyl)-2,6-dimethylpyridin-3-yl)acetic acid] and `Cc1nc(C)c([C@H](OC(C)(C)C)C(=O)O)c(N2CCC(C)(C)CC2)c1-c1ccc(CN(Cc2ccc(F)cc2)S(C)(=O)=O)cc1` [Example 34, (S)-2-(tert-butoxy)-2-(4-(4,4-dimethylpiperidin-1-yl)-5-(4-((N-(4-fluorobenzyl)methylsulfonamido)methyl)phenyl)-2,6-dimethylpyridin-3-yl)acetic acid] cannot be ordered by EC50: less than 0.1 µM for the first, less than 0.1 µM for the second.

`Cc1nc(C)c([C@H](OC(C)(C)C)C(=O)O)c(N2CCC(C)(C)CC2)c1-c1ccc(CN(Cc2ccc(F)cc2)C(=O)OCc2ccccc2)cc1` [Example 31, (S)-2-(5-(4-((((benzyloxy)carbonyl)(4-fluorobenzyl)amino)methyl)phenyl)-4-(4,4-dimethylpiperidin-1-yl)-2,6-dimethylpyridin-3-yl)-2-(tert-butoxy)acetic acid] and `CCOC(=O)N(Cc1ccc(F)cc1)Cc1ccc(-c2c(C)nc(C)c([C@H](OC(C)(C)C)C(=O)O)c2N2CCC(C)(C)CC2)cc1` [Example 33, (S)-2-(tert-butoxy)-2-(4-(4,4-dimethylpiperidin-1-yl)-5-(4-(((ethoxycarbonyl)(4 fluorobenzyl)amino)methyl)phenyl)-2,6-dimethylpyridin-3-yl)acetic acid] cannot be ordered by EC50: less than 0.1 µM for the first, less than 0.1 µM for the second.

`Cc1nc(C)c([C@H](OC(C)(C)C)C(=O)O)c(N2CCC(C)(C)CC2)c1-c1ccc(COC(C)(C)C)cc1` [Example 49, (S)-2-(tert-Butoxy)-2-(5-(4-(tert-butoxymethyl)phenyl)-4-(4,4-dimethylpiperidin-1-yl)-2,6-dimethylpyridin-3-yl)acetic acid] and `Cc1cc(OCc2ccc(-c3c(C)nc(C)c([C@H](OC(C)(C)C)C(=O)O)c3N3CCC(C)(C)CC3)cc2)ccc1Cl` [Example 50, (S)-2-(tert-Butoxy)-2-(5-(4-((4-chloro-3-methylphenoxy)methyl)phenyl)-4-(4,4-dimethylpiperidin-1-yl)-2,6-dimethylpyridin-3-yl)acetic acid] cannot be ordered by EC50: less than 0.1 µM for the first, less than 0.1 µM for the second.

`Cc1nc(C)c([C@H](OC(C)(C)C)C(=O)O)c(N2CCC(C)(C)CC2)c1-c1ccc(CN(Cc2ccc(F)cc2)CC2CCCO2)cc1` (stereo partly drawn) [Example 3, (2S)-2-(tert-Butoxy)-2-(4-(4,4-dimethylpiperidin-1-yl)-5-(4-(((4-fluorobenzyl) ((tetrahydrofuran-2-yl)methyl)amino)methyl)phenyl)-2,6-dimethylpyridin-3-yl)acetic acid] and `COC(=O)N(Cc1ccc(F)cc1)Cc1ccc(-c2c(C)nc(C)c([C@H](OC(C)(C)C)C(=O)O)c2N2CCC(C)(C)CC2)cc1` [Example 32, (S)-2-(tert-butoxy)-2-(4-(4,4-dimethylpiperidin-1-yl)-5-(4-(((4-fluorobenzyl)(methoxycarbonyl)amino)methyl)phenyl)-2,6-dimethylpyridin-3-yl)acetic acid] cannot be ordered by EC50: less than 0.1 µM for the first, less than 0.1 µM for the second.

`Cc1nc(C)c([C@H](OC(C)(C)C)C(=O)O)c(N2CCC(C)(C)CC2)c1-c1ccc(CN(Cc2ccc(F)cc2)C(=O)c2cccs2)cc1` [Example 44, (S)-2-(tert-butoxy)-2-(4-(4,4-dimethylpiperidin-1-yl)-5-(4-((N-(4-fluorobenzyl)thiophene-2-carboxamido)methyl)phenyl)-2,6-dimethylpyridin-3-yl)acetic acid] and `Cc1ccccc1C(=O)N(Cc1ccc(F)cc1)Cc1ccc(-c2c(C)nc(C)c([C@H](OC(C)(C)C)C(=O)O)c2N2CCC(C)(C)CC2)cc1` [Example 43, (S)-2-(tert-butoxy)-2-(4-(4,4-dimethylpiperidin-1-yl)-5-(4-((N-(4-fluorobenzyl)-2-methylbenzamido)methyl)phenyl)-2,6-dimethylpyridin-3-yl)acetic acid] cannot be ordered by EC50: less than 0.1 µM for the first, less than 0.1 µM for the second.

`COc1ccccc1C(=O)N(Cc1ccc(F)cc1)Cc1ccc(-c2c(C)nc(C)c([C@H](OC(C)(C)C)C(=O)O)c2N2CCC(C)(C)CC2)cc1` [Example 26, (S)-2-(tert-butoxy)-2-(4-(4,4-dimethylpiperidin-1-yl)-5-(4-((N-(4-fluorobenzyl)-2-methoxybenzamido)methyl)phenyl)-2,6-dimethylpyridin-3-yl)acetic acid] and `Cc1nc(C)c([C@H](OC(C)(C)C)C(=O)O)c(N2CCC(C)(C)CC2)c1-c1ccc(COc2cccc(C(F)(F)F)c2)cc1` [Example 48, (S)-2-(tert-Butoxy)-2-(4-(4,4-dimethylpiperidin-1-yl)-2,6-dimethyl-5-(4-((3-(trifluoromethyl)phenoxy)methyl)phenyl)pyridin-3-yl)acetic acid] cannot be ordered by EC50: less than 0.1 µM for the first, less than 0.1 µM for the second.

Same assay, conditions: MT2, 120 h, read-out: EC50 μM

Going from `Cc1nc(C)c([C@H](OC(C)(C)C)C(=O)O)c(N2CCC(C)(C)CC2)c1-c1ccc(CN(Cc2ccc(F)cc2)C(=O)c2cccc(F)c2)cc1` [Example 41, (S)-2-(tert-butoxy)-2-(4-(4,4-dimethylpiperidin-1-yl)-5-(4-((3-fluoro-N-(4-fluorobenzyl)benzamido)methyl)phenyl)-2,6-dimethylpyridin-3-yl)acetic acid] to `Cc1nc(C)c([C@H](OC(C)(C)C)C(=O)O)c(N2CCC(C)(C)CC2)c1-c1ccc(CN(Cc2ccc(F)cc2)C(=O)c2ccccc2F)cc1` [Example 27, (S)-2-(tert-butoxy)-2-(4-(4,4-dimethylpiperidin-1-yl)-5-(4-((2-fluoro-N-(4-fluorobenzyl)benzamido)methyl)phenyl)-2,6-dimethylpyridin-3-yl)acetic acid], the EC50 falls from 0.015 µM to 0.008 µM (1.9-fold).
